Values joined by “and” are separate entries in the source; they are usually repeats but may differ in a detail not shown here. Equal values may be shown once. Where a name gives a salt, the structure may show the parent alone.
Assays:
HCT116 [1] = assay: efficacy (fitted maximal change in viability relative to DMSO control); higher = less cytotoxic (negative = loss of viability); conditions: 48 h
HCT116 [2] = assay: AC50 cell viability (CellTiter-Glo); higher = less potent; conditions: 48 h
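Throughout, for AC50 cell viability (CellTiter-Glo): HCT116 colorectal carcinoma cells screened at five concentrations per compound, luminescent viability scaled between DMSO wells and empty wells on each plate, curves fitted per compound.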
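Throughout, for efficacy (fitted maximal change in viability relative to DMSO control): Luminescence-based viability readout, five doses per compound, normalized against on-plate DMSO and empty-well controls, followed by dose-response curve fitting for every drug.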

SMILES	efficacy (HCT116 [1])	AC50 cell viability (HCT116 [2])
NCC(=O)Nc1ccc(-n2nc(C(F)(F)F)cc2-c2ccc3c(ccc4ccccc43)c2)cc1	-124%	13.2 µM
COc1cc(N[S+](C)(=O)[O-])ccc1Nc1c2ccccc2nc2ccccc12 [Amsacrine]	-124%	11.8 µM
COC1=C(OC)C=C2C(=C1)C(=O)N(CCC[N]3C=CN=C3)\C4=C2\C(=O)C5=CC6=C(OCO6)C=C45 [Indimitecan hydrochloride (LMP-776)]	-63.4%	5.9 µM
OC[C@H]1O[C@H](C[C@@H]1O)N2/C=C(C(=O)NC2=O)/C(F)(F)F [Trifluridine]	-62.4%	2.63 µM
CCC(C)SSc1ncc[nH]1 (configuration not stated) [PX-12]	-88.8%	18.6 µM
CC(C)n1ncnc1-c1cn2c(n1)-c1ccc(O[C@@H](C)C(N)=O)cc1OCC2 [GDC-0326]	-72.2%	6.61 µM
C/C(=C\c1csc(C)n1)[C@@H]1C[C@@H]2O[C@]2(C)CCC[C@H](C)[C@H](O)[C@@H](C)C(=O)C(C)(C)[C@@H](O)CC(=O)O1 [Epothilone B]	-49.2%	0.00662 µM
C1=CC2=N/C(=N\c3ccc(OCCN4CCCC4)c(c3)COC/C=C/COCc3cccc2c3)N1 [Pacritinib]	-89.9%	1.86 µM
O=C(Nc1c[nH]nc1-c1nc2cc(CN3CCOCC3)ccc2[nH]1)NC1CC1 [AT-9283]	-62.5%	0.417 µM
NC/1=N/C(=O)N(/C=C1)[C@@H]2O[C@H](CO)[C@@H](O)C2(F)F [Gemcitabine]	-71.9%	0.0263 µM
c1cc(-c2cnn3cc(-c4ccc(OCCN5CCCCC5)cc4)cnc23)ccn1 [Dorsomorphin]	-82.7%	4.68 µM
COc1ccc(C(=O)CC2(O)C(=O)Nc3c(Cl)ccc(Cl)c32)cc1 (configuration not stated) [YK-4-279]	-57.1%	1.18 µM
NCCCN([C@H](CC#C)C/1=N/C2=C(C=CC(=C2)Cl)C(=O)N1NC3=CC=CC=C3)C(=O)C4=CC=CC(=C4F)Cl [ARQ-621]	-102%	0.468 µM
COc1cccc2c1C(=O)c1c(O)c3c(c(O)c1C2=O)C[C@@](O)(C(=O)CO)C[C@@H]3O[C@H]1C[C@H](N)[C@H](O[C@H]2CCCCO2)[C@H](C)O1 [Pirarubicin]	-90.5% and -67.3%	0.934 µM and 0.468 µM
COc1cc(N2CCN(C)CC2)ccc1Nc1ncc2c(n1)N(C)c1ccccc1C(=O)N2C [XMD17-109 (ERK5-IN-1)]	-89.1%	9.34 µM
NC1=NC(=C(C#N)C(=N1)N)N[C@@H](C2CC2)\C3=N\C4=C(C(=CC=C4F)Cl)C(=O)N3C5=CC=CN=C5 [GS-9901]	-71%	18.6 µM
Nc1cccc([S+](=O)([O-])N2CCCN([S+](=O)([O-])c3ccc4c(c3)OCCO4)CC2)c1 [DASA-58]	-59.9%	14.8 µM
CCN(CC)CCOC1=CC=C(NC2=NC=C3\C=C(/C(=O)N(C)C3=N2)C4=C(Cl)C=CC=C4Cl)C=C1	-86.9%	1.18 µM
COCCOC(=O)C/1=C(C)/NC/2=C(C1C3=CC=CC(=C3)O)/C(=O)CC(C2)C4=C(OC)C=CC=C4 (configuration not stated) [HPI-1]	-73.6%	14.8 µM

SMILES	efficacy (HCT116 [1])	AC50 cell viability (HCT116 [2])
Nc1ncccc1-c1nc2ccc(-c3ccccc3)nc2n1-c1ccc(C2(N)CCC2)cc1 [Miransertib]	-126%	14.8 µM
O=C1Nc2nc(-c3c(O)cccc3OCC3CC3)cc([C@@H]3CCCNC3)c2CO1 [Bay-65-1942 hydrochloride]	-90.5%	9.34 µM
Cc1ccc(C(=O)OCc2ccc([C@@H](CN)C(=O)Nc3ccc4cnccc4c3)cc2)c(C)c1 [Netarsudil]	-108%	8.11 µM
COC(C)(C)CCn1nc(Nc2c(C)cccc2C)c2cnc(Nc3ccc(OCCN4CCCC4)c(F)c3)nc21 [PRP003-032]	-122%	14.8 µM
COC[C@H]1OC(=O)C2=COC3=C2[C@@]1(C)\C4=C(C5CCC(=O)[C@@]5(C)C[C@H]4OC(C)=O)/C3=O (some centres not stated) [17_-hydroxy Wortmannin]	-43.9%	0.468 µM
C/C(=N\NC(=O)c1cccc([S+](=O)([O-])N2CCOCC2)c1)c1cc(Cl)ccc1O [SP2509]	-69.5%	1.86 µM
COc1cc2c(Oc3ccc4[nH]c(C)cc4c3F)ncnc2cc1OCCCN1CCCC1 [Cediranib]	-111%	14.8 µM
CN(C)C(=O)C(CCN1CCC(O)(c2ccc(Cl)cc2)CC1)(c1ccccc1)c1ccccc1 [Loperamide hydrochloride]	-98.7%	18.6 µM
O=C(Cc1ccc(-c2ccc(OCCN3CCOCC3)cc2)cn1)NCc1ccccc1 [KX-01]	-59.6%	0.0833 µM
COc1cc2ncn(-c3cc(OCc4ccccc4C(F)(F)F)c(C(N)=O)s3)c2cc1OC	-78.4%	0.934 µM
CC(O)c1cc(C(=O)N[C@@H](C)Cn2ccc(-c3ccc(C#N)c(Cl)c3)n2)n[nH]1 (some centres not stated) [Darolutamide (ODM-201)]	-38.4%	16.6 µM
CCCN(CCC)C(=O)C\1=C\C2=CC=C(C=C2\N=C(N)/C1)C3=CC=C(C=C3)C(=O)N4CCCC4 [Motolimod]	-45.8%	18.6 µM
C=C1/C(=C/C=C2\CCCC3(C)[C@@H]([C@H](C)/C=C/C=C/C(O)(CC)CC)CC[C@@H]23)C[C@@H](O)C[C@@H]1O (some centres not stated) [Seocalcitol]	-31.2%	18.6 µM
CC(C)Nc1cc(-c2c[nH]c(C(=O)N[C@H](CO)c3cccc(Cl)c3)c2)c(Cl)cn1 [Ulixertinib]	-114%	1.86 µM
Nc1ncnc2c1c(-c1cccc(OCc3ccccc3)c1)cn2[C@H]1C[C@@H](CN2CCC2)C1 [NVP-AEW541]	-85.2%	5.9 µM
Nc1nc(Nc2ccc3c(c2)CC[C@@H](N2CCCC2)CC3)nn1-c1cc2c(nn1)-c1ccccc1CCC2 [Bemcentinib]	-108%	14.8 µM
COc1cc2nccc(Oc3ccc(NC(=O)C4(C(=O)Nc5ccc(F)cc5)CC4)cc3)c2cc1OC [Cabozantinib]	-65.4%	7.42 µM
Cc1ccc(NC(=O)c2ccc3c(c2)OCCO3)cc1NC(=O)c1ccc2nc(OCCN3CCCC3)ccc2c1	-69.9%	0.0407 µM
CNC(=O)c1cc(Oc2ccc(NC(=O)Nc3ccc(Cl)c(C(F)(F)F)c3)cc2)ccn1 [Sorafenib]	-95%	9.34 µM

SMILES	efficacy (HCT116 [1])	AC50 cell viability (HCT116 [2])
O=C1CSC(=O)N1C(CCc1ccncc1)COc1ccc(-c2cccc([N+](=O)[O-])c2)cc1 (configuration not stated)	-32.9%	2.63 µM
N#Cc1ccc(Cn2cncc2CN2CCN(c3cccc(Cl)c3)C(=O)C2)cc1	-46%	0.332 µM
Cc1nc([C@](C)(O)CO)sc1-c1cnc(N)c(O[C@H](C)c2cc(F)ccc2-n2nccn2)c1	-57.7%	3.72 µM
CN[C@@H]1C[C@H]2O[C@@](C)([C@@H]1OC)n1c3ccccc3c3c4c(c5c6ccccc6n2c5c31)C(=O)NC4 [Staurosporine]	-89.4%	0.0468 µM
COCCOc1nc(-c2ccc(Cl)c(Cl)c2)n(-c2ccc(NC(=O)CCl)cc2)n1 [MI-2]	-63.7%	18.6 µM
Cc1c(CN2CCC(Nc3ncnc4sc(CC(F)(F)F)cc34)CC2)ccc2c1cc(C#N)n2Cc1cn[nH]c1 [MI-503]	-76%	3.72 µM
CC(C)N(CCC(=O)c1ccc2ccccc2c1)Cc1ccccc1	-77.8%	20.9 µM
CN(C)c1ccc(C(=O)NCCCCCCC(=O)NO)cc1 [M-344]	-84.5%	0.742 µM
COc1cc(C(=O)NC2CCN(C)CC2)c(F)cc1Nc1ncc2c(n1)N(C1CCCC1)CC(F)(F)C(=O)N2C [TAK-960]	-120%	1.32 µM
C[C@@H]1O[C@@H](O[C@H]2C[C@@H](O)[C@]3(CO)[C@H]4[C@H](O)C[C@]5(C)[C@H](CC[C@]5(O)[C@@H]4CC[C@]3(O)C2)C/6=C/C(=O)OC6)[C@H](O)[C@H](O)[C@H]1O [Strophantine octahydrate]	-75.8%	0.0263 µM
CCOC\1=C(/C(=O)NC2=CC=C(OC3=C(Cl)C(=NC=C3)N)C(=C2)F)C(=O)N(\C=C1)C4=CC=C(F)C=C4	-67.3%	18.6 µM
COc1ccc(OC)c(-c2nnc3ccc(-c4ccc(OC)c(O[C@@H]5CCOC5)c4)nn23)c1	-66.5%	2.95 µM
CNC(=O)c1ccc(Nc2ncc(C(F)(F)F)c(NCc3nccnc3N(C)[S+](C)(=O)[O-])n2)cc1 [Defactinib]	-71.4%	1.86 µM
NC\1=N\C(=O)N(\C=C1)[C@H]\2[C@H](O)[C@H](O)C(=C2F)\CO [Fluorocyclopentenylcytosine]	-66.3%	0.525 µM
CN1CCN(C2CCN(C(=O)Nc3cc(Oc4ccc(NC(=O)C5(C(=O)Nc6ccc(F)cc6)CC5)c(F)c4)ccn3)CC2)CC1 [Golvatinib]	-93.6%	14.8 µM
CNc1nccc(-c2cccnc2Oc2cc(C(=O)Nc3cccc(C(F)(F)F)c3)ccc2C)n1 [AMG-Tie2-1]	-78.8%	1.66 µM
O=C(NO)c1cnc(N2C[C@H]3C[C@@H]2CN3c2cc(C(F)(F)F)ccn2)nc1 [HDACi-02]	-86.6%	1.48 µM
CN1CCN(CC1)C2=NC3=C(C=CC=C3)C(=N2)C/4=C(/C(=O)NC4=O)C5=C[NH]C6=C5C=CC=C6 [Sotrastaurin]	-83.5%	23.5 µM

— the supplement of paper PMC10290057
